From ChEMBL document CHEMBL1201862, “PubChem BioAssay data set” (2004)
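These data come from cells grown in 96-well plates and exposed to compound for 48 hours at five concentrations. At the GI50, growth is halved.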 Active and inactive are the calls of the source. No stated cut-off is given here; in the data, active = GI50 up to about 1.1 µM and inactive = higher.

Assays:
Experiment in all cases: DTP human tumour cell line panel, 48 h
[1] = system: HOP-62
[2] = system: CCRF-CEM
[3] = system: SNB-19
[4] = system: MOLT-4
[5] = system: UACC-257
[6] = system: CAKI-1
[7] = system: M14
[8] = system: SK-OV-3
[9] = system: NCI/ADR-RES
[10] = system: RXF 393
[11] = system: 786-0
[12] = system: SK-MEL-5
[13] = system: K562
[14] = system: HT-29
[15] = system: SK-MEL-2
[16] = system: SF-268
[17] = system: OVCAR-3
[18] = system: TK-10
[19] = system: SF-539
[20] = system: HL-60

| Structure (SMILES) | GI50 [1] | GI50 [2] | GI50 [3] | GI50 [4] | GI50 [5] | GI50 [6] | GI50 [7] | GI50 [8] | GI50 [9] | GI50 [10] | GI50 [11] | GI50 [12] | GI50 [13] | GI50 [14] | GI50 [15] | GI50 [16] | GI50 [17] | GI50 [18] | GI50 [19] | GI50 [20] |
| --- | --- | --- | --- | --- | --- | --- | --- | --- | --- | --- | --- | --- | --- | --- | --- | --- | --- | --- | --- | --- |
| CCOC(=O)CSC1NC(C(=O)OC)CC1OC (stereo not given) | > 100 µM (inactive) | 75 µM (inactive) | > 100 µM (inactive) | > 100 µM (inactive) | > 100 µM (inactive) | > 100 µM (inactive) | > 100 µM (inactive) | > 100 µM (inactive) | > 100 µM (inactive) | > 100 µM (inactive) | > 100 µM (inactive) | > 100 µM (inactive) | > 100 µM (inactive) | > 100 µM (inactive) | > 100 µM (inactive) | > 100 µM (inactive) | > 100 µM (inactive) | > 100 µM (inactive) | – | – |
| Nc1ncn2c(n1)nc1ccccc12 | – | > 100 µM (inactive) | > 100 µM (inactive) | > 100 µM (inactive) | > 100 µM (inactive) | > 100 µM (inactive) | > 100 µM (inactive) | > 100 µM (inactive) | > 100 µM (inactive) | 18.6 µM (inactive) | > 100 µM (inactive) | > 100 µM (inactive) | > 100 µM (inactive) | > 100 µM (inactive) | > 100 µM (inactive) | > 100 µM (inactive) | – | > 100 µM (inactive) | > 100 µM (inactive) | > 100 µM (inactive) |
| COC(=O)c1sc2c(=O)c(C(=O)OC)c(C(=O)OC)sc2c(=O)c1C(=O)OC | > 100 µM (inactive) | – | > 100 µM (inactive) | 5.85 µM (inactive) | > 100 µM (inactive) | > 100 µM (inactive) | > 100 µM (inactive) | > 100 µM (inactive) | > 100 µM (inactive) | > 100 µM (inactive) | > 100 µM (inactive) | > 76 µM (inactive) | 43.2 µM (inactive) | > 100 µM (inactive) | > 85.9 µM (inactive) | > 62.7 µM (inactive) | > 100 µM (inactive) | > 100 µM (inactive) | > 100 µM (inactive) | – |
| O=C(NCc1cccnc1)NCc1cccnc1 | > 100 µM (inactive) | – | > 100 µM (inactive) | – | > 100 µM (inactive) | > 100 µM (inactive) | > 100 µM (inactive) | > 100 µM (inactive) | > 100 µM (inactive) | > 100 µM (inactive) | > 100 µM (inactive) | > 100 µM (inactive) | > 100 µM (inactive) | > 100 µM (inactive) | > 100 µM (inactive) | > 100 µM (inactive) | > 100 µM (inactive) | > 100 µM (inactive) | > 100 µM (inactive) | > 100 µM (inactive) |
| COC(=O)[C@H](Cc1c[nH]c2ccccc12)NC(=O)c1ccc(CNC(=O)/C(C)=C/c2ccccc2)cc1 | 92.5 µM (inactive) | 41 µM (inactive) | > 100 µM (inactive) | 21.5 µM (inactive) | 18 µM (inactive) | > 100 µM (inactive) | 15.9 µM (inactive) | > 100 µM (inactive) | 52.8 µM (inactive) | < 0.01 µM (active) | > 100 µM (inactive) | 17.4 µM (inactive) | > 100 µM (inactive) | > 100 µM (inactive) | 12.4 µM (inactive) | 97.5 µM (inactive) | 28.6 µM (inactive) | 29.6 µM (inactive) | > 100 µM (inactive) | – |
| CN(C)/N=N/c1nc2c(c(=O)n(C)c(=O)n2C)n1CC(O)CO (stereo not given) | > 100 µM (inactive) | > 100 µM (inactive) | > 100 µM (inactive) | > 100 µM (inactive) | > 100 µM (inactive) | > 100 µM (inactive) | > 100 µM (inactive) | > 100 µM (inactive) | > 100 µM (inactive) | > 100 µM (inactive) | > 100 µM (inactive) | > 100 µM (inactive) | > 100 µM (inactive) | > 100 µM (inactive) | > 100 µM (inactive) | > 100 µM (inactive) | > 100 µM (inactive) | > 100 µM (inactive) | – | > 100 µM (inactive) |
| Cc1nnc2c3c(-c4ccccc4)c(-c4ccccc4)oc3nc(N(C)C)n12 | – | 29.6 µM (inactive) | > 100 µM (inactive) | 22.9 µM (inactive) | 36.1 µM (inactive) | > 100 µM (inactive) | 61.2 µM (inactive) | > 100 µM (inactive) | > 100 µM (inactive) | 73.5 µM (inactive) | 90.4 µM (inactive) | 35.2 µM (inactive) | 36.1 µM (inactive) | 33.2 µM (inactive) | – | 39.5 µM (inactive) | – | > 100 µM (inactive) | 86.5 µM (inactive) | 22.4 µM (inactive) |
| Cc1ccc(C(=O)C2=CN=C3C(=O)N(c4ccccc4)N(C)C3(C)C2=N)cc1 (stereo not given) | – | > 100 µM (inactive) | – | > 100 µM (inactive) | > 100 µM (inactive) | > 100 µM (inactive) | > 100 µM (inactive) | > 100 µM (inactive) | > 100 µM (inactive) | > 100 µM (inactive) | > 100 µM (inactive) | > 100 µM (inactive) | > 100 µM (inactive) | – | > 100 µM (inactive) | – | > 100 µM (inactive) | > 100 µM (inactive) | > 100 µM (inactive) | > 100 µM (inactive) |
| O=C(Oc1ccc(OC(Oc2ccccc2)c2ccccc2)cc1)c1ccccc1 (stereo not given) | 13.9 µM (inactive) | 17.3 µM (inactive) | > 31.6 µM (inactive) | 16 µM (inactive) | 17.9 µM (inactive) | > 10 µM (inactive) | 8.38 µM (inactive) | 27.2 µM (inactive) | 27.9 µM (inactive) | > 92.3 µM (inactive) | > 31.6 µM (inactive) | 22.1 µM (inactive) | > 31.6 µM (inactive) | 22.9 µM (inactive) | 17.3 µM (inactive) | 13 µM (inactive) | 25.4 µM (inactive) | 31.3 µM (inactive) | – | 16.3 µM (inactive) |
| CC1(C)O[C@@H]2[C@@H](COC(C)(C)O[C@H]2C2SCCCS2)O1 | > 100 µM (inactive) | – | > 100 µM (inactive) | > 100 µM (inactive) | – | > 100 µM (inactive) | > 100 µM (inactive) | > 100 µM (inactive) | > 100 µM (inactive) | > 100 µM (inactive) | > 100 µM (inactive) | > 100 µM (inactive) | > 100 µM (inactive) | > 100 µM (inactive) | > 100 µM (inactive) | > 100 µM (inactive) | > 100 µM (inactive) | – | > 100 µM (inactive) | – |
| COC1C(O)C(O[C@H]2CC[C@@]3(C)C(CC[C@@H]4[C@@H]3CC[C@]3(C)[C@@H](C(C)OC5OC(CO)C(O)C(O)C5O)CC[C@]43O)C2)OC(C)C1OC1OC(CO)C(O)C(O)C1O (stereo not given in full) | > 100 µM (inactive) | > 100 µM (inactive) | > 100 µM (inactive) | > 100 µM (inactive) | > 100 µM (inactive) | > 100 µM (inactive) | > 100 µM (inactive) | > 100 µM (inactive) | > 100 µM (inactive) | > 100 µM (inactive) | > 100 µM (inactive) | > 100 µM (inactive) | > 100 µM (inactive) | > 100 µM (inactive) | > 100 µM (inactive) | > 100 µM (inactive) | > 100 µM (inactive) | > 100 µM (inactive) | > 100 µM (inactive) | – |
| O=c1[nH]c(-c2ccccc2)nc2c1sc1nc3ccccc3n12 | – | > 100 µM (inactive) | 98.4 µM (inactive) | 16.1 µM (inactive) | > 100 µM (inactive) | > 100 µM (inactive) | > 100 µM (inactive) | > 100 µM (inactive) | > 100 µM (inactive) | > 100 µM (inactive) | > 100 µM (inactive) | > 100 µM (inactive) | > 100 µM (inactive) | > 100 µM (inactive) | > 100 µM (inactive) | 78.2 µM (inactive) | > 100 µM (inactive) | > 100 µM (inactive) | > 100 µM (inactive) | > 100 µM (inactive) |
| O=C1C(Cl)=C(N[C@@H](Cc2ccccc2)C(=O)OCc2ccccc2)C(=O)c2c(O)ccc(O)c21 | 3.52 µM (inactive) | 0.485 µM (active) | 5.81 µM (inactive) | – | > 10 µM (inactive) | > 10 µM (inactive) | 3.8 µM (inactive) | > 10 µM (inactive) | 1.88 µM (inactive) | 4.92 µM (inactive) | 3.11 µM (inactive) | 3.24 µM (inactive) | – | 4 µM (inactive) | 6.7 µM (inactive) | 2.91 µM (inactive) | 2.45 µM (inactive) | > 10 µM (inactive) | 2.42 µM (inactive) | 2.07 µM (inactive) |
| O=[N+]([O-])c1ccc2nc(=S)[nH]n2c1 | > 100 µM (inactive) | > 100 µM (inactive) | > 100 µM (inactive) | > 100 µM (inactive) | > 100 µM (inactive) | > 100 µM (inactive) | > 100 µM (inactive) | > 100 µM (inactive) | > 100 µM (inactive) | > 100 µM (inactive) | > 100 µM (inactive) | > 100 µM (inactive) | > 100 µM (inactive) | > 100 µM (inactive) | > 100 µM (inactive) | > 100 µM (inactive) | – | > 100 µM (inactive) | > 100 µM (inactive) | > 100 µM (inactive) |
| CCOC(=O)/C(=C\NC[C@@H](C)O)c1nc2ccccc2[nH]1 | > 100 µM (inactive) | – | > 100 µM (inactive) | 0.238 µM (active) | 56 µM (inactive) | > 100 µM (inactive) | 56 µM (inactive) | > 100 µM (inactive) | 44.3 µM (inactive) | > 100 µM (inactive) | > 100 µM (inactive) | 29.5 µM (inactive) | – | 71.3 µM (inactive) | – | 60.7 µM (inactive) | 98.4 µM (inactive) | 54.2 µM (inactive) | > 100 µM (inactive) | 20.4 µM (inactive) |
